This passage reports IC50 results from publication PMC3147111 (European journal of immunology, 2010).

The target of this assay is DRB1*1501 (Homo sapiens, UniProt P01903+P01911). The assay is described as follows: biochemical. The assay is classed as binding.

The molecule `CC(C)C[C@H](NC(=O)[C@H](Cc1ccc(O)cc1)NC(=O)[C@H](C)NC(=O)[C@H](CCCNC(=N)N)NC(=O)[C@H](CC(C)C)NC(=O)[C@H](CCC(N)=O)NC(=O)[C@H](CCC(=O)O)NC(=O)[C@H](C)NC(=O)[C@@H](N)CCC(=O)O)C(=O)N[C@@H](CC(=O)O)C(=O)NCC(=O)N[C@H](C(=O)NCC(=O)N[C@H](C(=O)N[C@@H](CCC(=O)O)C(=O)O)C(C)C)[C@@H](C)O` [A3 152–166] yielded an IC50 of 48 nM.
